Entries after “also recorded” stand apart in the source; their conditions may differ.
Experiments:
[1] = biological target: F508del-CFTR in CFBE41o– cells (Homo sapiens, UniProt Q99942); assay: CFTR immunoprecipitation and Western blot (CFTR expression and ubiquitylation); assay type: cell-based; conditions: 24 h, 16 5 μM, VX-661 + VX-445 10 μM + 3 μM
Experimental: Finally, we evaluated ubiquitylation of mutant CFTR in CFBE41o^– cells following 24 h treatment with DMSO (vehicle), analogue 16, VX-661 + VX-445, and their combination. Subsequently, cells were treated for 4 h with DMSO alone or with MG-132 (10 μM; to block proteasomal degradation) and then lysed. Cell lysates were immunoprecipitated using an anti-CFTR antibody and then subjected to SDS-PAGE followed by Western blotting to evaluate CFTR expression and ubiquitylation status (Figure 9C–F). […] In brief, cells were lysed and, after centrifugation, the protein concentration in the supernatant was calculated using the BCA assay (Euroclone, Pero (MI), Italy) following supplier’s instructions An aliquot of supernatant corresponding to 600 μg of protein was incubated for 1 h with 2 μg/sample of rabbit polyclonal anti-CFTR antibody (Alomone Labs, Jerusalem, Israel), with rocking at room temperature (RT). […] Equal amounts of IP products were analyzed by Western blotting (20 μL). […] In brief, equal amounts of lysates (25 μg) or IP products (20 μL) were separated onto gradient 4–15% Criterion TGX Precast gels (Bio-rad laboratories Inc.), transferred to a nitrocellulose membrane with a Trans-Blot Turbo system (Bio-rad Laboratories Inc.), and analyzed by Western blotting. […]

[2] = tested on: ATG4B-mediated basal autophagy in F508del-CFTR-expressing CFBE41o– cells; assay: Labeling of autophagic vacuoles with monodansylcadaverine (MDC); assay type: cell-based, human; conditions: test compounds 5 μM 24 h; torin-1 20 nM and SAR-405 2 μM in the last 3 h
Text: To further support our hypothesis that CFTR rescue following treatment with test compounds was indeed due to RNF5 inhibition, we considered additional biological processes known to be regulated by RNF5 ligase activity. To this aim, we focused our attention on ATG4B, a known regulator of basal autophagy, whose degradation is mediated by RNF5 activity.[54]In vivo ubiquitination experiments previously confirmed that inh-2 inhibits ATG4B degradation, thus increasing the basal level of autophagy.[40] […] We thus evaluated the effect of inh-2 analogues on induction of the autophagy pathway. To this aim, we monitored the formation of autophagic vacuoles in F508del-CFTR-expressing CFBE41o^– cells (Figure 8) by using the autolysosome marker monodansylcadaverine (MDC). MDC accumulates inside autophagosomes. After fusion of autophagosomes with lysosomes, MDC fluorescence increases due to the acidic environment.[55] Therefore, F508del-CFTR-expressing CFBE41o^– cells were treated for 24 h with test compounds (5 μM), VX-809 (1 μM), or DMSO alone (vehicle). In the last 3 h of incubation, we added torin-1 (20 nM), a known autophagy inducer, and SAR-405 (2 μM), a potent inhibitor of the autophagic pathway. The cells were then loaded with MDC and evaluated by high-content confocal imaging to detect signal spots (corresponding to autophagic vacuoles) in each cell.
CFBE41o^– cells stably expressing F508del-CFTR and the HS-YFP were plated (50,000 cells/well) on good-quality clear-bottom 96-well black microplates suitable for high-content imaging. After 24 h, cells were treated with test compounds or DMSO (as the negative control). […] After 24 h, cells were incubated with 50 μM MDC (Sigma-Aldrich) in PBS at 37 °C for 10 min.[62] After incubation, cells were washed three times with PBS and immediately analyzed. High-content imaging and data analysis were performed using the Opera Phenix (PerkinElmer) high-content screening system. Wells were imaged in confocal mode using a 40× water-immersion objective. The MDC signal was laser-excited at 405 nm, and the emission wavelengths were collected between 435 and 550 nm. Data analysis of MDC spot number was performed using the Harmony software (ver 4.5) of the Opera Phenix high-content system. Data are expressed as means ± SEM, n = 3 independent experiments. Statistical significance was tested by parametric ANOVA followed by the Dunnet multiple comparisons test (all groups against the control group).

Chain of F508del-CFTR in CFBE41o– cells (Q99942 2-180): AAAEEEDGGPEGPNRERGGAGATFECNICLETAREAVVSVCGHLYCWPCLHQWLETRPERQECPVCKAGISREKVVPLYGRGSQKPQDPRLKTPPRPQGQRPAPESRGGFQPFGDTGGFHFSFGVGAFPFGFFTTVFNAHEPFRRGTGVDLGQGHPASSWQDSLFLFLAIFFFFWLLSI
Chain of F508del-CFTR in CFBE41o– cells (P13569 with tags, fused parts or gaps DEL508-508 partner): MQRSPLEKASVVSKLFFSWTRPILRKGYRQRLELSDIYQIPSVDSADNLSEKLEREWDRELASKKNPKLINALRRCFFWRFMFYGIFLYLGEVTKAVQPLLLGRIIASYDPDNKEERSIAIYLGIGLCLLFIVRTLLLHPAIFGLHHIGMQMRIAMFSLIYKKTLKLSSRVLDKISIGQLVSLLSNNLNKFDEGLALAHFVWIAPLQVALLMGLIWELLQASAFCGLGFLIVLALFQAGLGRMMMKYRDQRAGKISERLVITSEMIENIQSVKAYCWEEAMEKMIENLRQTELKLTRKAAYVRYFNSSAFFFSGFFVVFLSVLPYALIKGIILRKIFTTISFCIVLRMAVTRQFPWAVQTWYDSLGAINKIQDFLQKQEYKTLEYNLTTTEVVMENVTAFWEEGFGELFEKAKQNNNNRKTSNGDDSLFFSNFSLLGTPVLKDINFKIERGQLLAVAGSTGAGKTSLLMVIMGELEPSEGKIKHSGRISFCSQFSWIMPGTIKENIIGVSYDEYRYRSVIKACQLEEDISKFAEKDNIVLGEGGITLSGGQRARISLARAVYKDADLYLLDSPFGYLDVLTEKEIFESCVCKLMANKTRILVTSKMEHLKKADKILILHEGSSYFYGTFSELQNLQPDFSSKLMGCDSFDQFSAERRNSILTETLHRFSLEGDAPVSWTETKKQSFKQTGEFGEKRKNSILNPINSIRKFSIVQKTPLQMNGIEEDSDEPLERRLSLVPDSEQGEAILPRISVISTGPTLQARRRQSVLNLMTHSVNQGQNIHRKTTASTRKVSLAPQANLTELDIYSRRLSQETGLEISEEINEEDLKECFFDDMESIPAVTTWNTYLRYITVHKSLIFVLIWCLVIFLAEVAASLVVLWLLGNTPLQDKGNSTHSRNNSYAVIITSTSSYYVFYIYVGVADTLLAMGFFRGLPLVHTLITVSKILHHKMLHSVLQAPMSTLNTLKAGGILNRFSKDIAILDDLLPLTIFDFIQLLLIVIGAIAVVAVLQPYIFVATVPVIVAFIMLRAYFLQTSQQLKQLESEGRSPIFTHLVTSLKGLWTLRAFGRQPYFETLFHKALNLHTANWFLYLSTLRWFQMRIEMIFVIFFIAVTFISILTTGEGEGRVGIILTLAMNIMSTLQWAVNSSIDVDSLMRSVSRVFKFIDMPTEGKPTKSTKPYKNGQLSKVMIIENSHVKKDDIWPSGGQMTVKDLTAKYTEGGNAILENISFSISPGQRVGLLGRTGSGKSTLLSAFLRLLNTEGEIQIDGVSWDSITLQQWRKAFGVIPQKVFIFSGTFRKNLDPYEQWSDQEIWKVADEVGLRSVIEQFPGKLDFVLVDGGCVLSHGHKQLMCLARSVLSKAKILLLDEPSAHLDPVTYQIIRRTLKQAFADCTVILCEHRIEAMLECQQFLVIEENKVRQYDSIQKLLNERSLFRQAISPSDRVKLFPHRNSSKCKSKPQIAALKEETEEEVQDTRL

rescue of mutant CFTR (mature form, band C) [1] | Structure (SMILES) | number of autophagic vacuoles (MDC signal spots) [2]
very modest | COc1cccc(Cn2c(C)ns/c2=N\C(=N\c2ccccc2)c2ccccc2)c1 [Compound 16, (E)-N-((Z)-4-(3-Methoxybenzyl)-3-methyl-1,2,4-thiadiazol-5(4H)-ylidene)-N′-phenylbenzimidamide] | significantly increased; also recorded: strong activation of basal autophagy
– | Cc1ns/c(=N\C(=N\c2ccccc2)c2ccccc2)n1Cc1ccccc1 [inh-2, reference compound] | significantly increased

From article PMC10388311, “Innovative Strategy toward Mutant CFTR Rescue in Cystic Fibrosis: Design and Synthesis of Thiadiazole Inhibitors of the E3 Ligase RNF5” (Journal of Medicinal Chemistry, 2023)
